# Test results reported in patent US9487508B2, “SGC stimulators” (IRONWOOD PHARMACEUTICALS, INC., priority 2012, dated 2016).
# Assays:
# [1] = target: T1, Human soluble guanylate cyclase enzyme (hsGC) (Homo sapiens, UniProt Q02108+Q02153); experiment: Purified human sGC enzyme activity assay (without SNP); assay type: biochemical; settings: 30 μM compound, fold change of specific activity vs DMSO control
# T1 construct: purchased Enzo Inc. ALX-201-177
# T1 sequence (Q02153 1-619): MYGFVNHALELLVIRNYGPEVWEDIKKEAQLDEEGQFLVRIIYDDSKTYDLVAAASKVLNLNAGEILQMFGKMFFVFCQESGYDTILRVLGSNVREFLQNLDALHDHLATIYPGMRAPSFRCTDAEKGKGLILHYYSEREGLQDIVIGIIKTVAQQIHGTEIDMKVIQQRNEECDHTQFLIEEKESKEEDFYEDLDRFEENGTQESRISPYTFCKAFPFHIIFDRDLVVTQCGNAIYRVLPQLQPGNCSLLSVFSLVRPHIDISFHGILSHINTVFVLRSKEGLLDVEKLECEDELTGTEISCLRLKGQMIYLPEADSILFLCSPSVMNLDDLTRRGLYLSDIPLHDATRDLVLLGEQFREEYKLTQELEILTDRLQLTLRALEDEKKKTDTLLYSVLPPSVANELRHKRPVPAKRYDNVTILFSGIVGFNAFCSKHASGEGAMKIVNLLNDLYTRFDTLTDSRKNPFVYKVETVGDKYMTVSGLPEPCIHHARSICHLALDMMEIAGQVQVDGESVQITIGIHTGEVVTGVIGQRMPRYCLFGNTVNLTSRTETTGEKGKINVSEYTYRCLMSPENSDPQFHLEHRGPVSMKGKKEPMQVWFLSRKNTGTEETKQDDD
# T1 sequence (Q02108 1-690): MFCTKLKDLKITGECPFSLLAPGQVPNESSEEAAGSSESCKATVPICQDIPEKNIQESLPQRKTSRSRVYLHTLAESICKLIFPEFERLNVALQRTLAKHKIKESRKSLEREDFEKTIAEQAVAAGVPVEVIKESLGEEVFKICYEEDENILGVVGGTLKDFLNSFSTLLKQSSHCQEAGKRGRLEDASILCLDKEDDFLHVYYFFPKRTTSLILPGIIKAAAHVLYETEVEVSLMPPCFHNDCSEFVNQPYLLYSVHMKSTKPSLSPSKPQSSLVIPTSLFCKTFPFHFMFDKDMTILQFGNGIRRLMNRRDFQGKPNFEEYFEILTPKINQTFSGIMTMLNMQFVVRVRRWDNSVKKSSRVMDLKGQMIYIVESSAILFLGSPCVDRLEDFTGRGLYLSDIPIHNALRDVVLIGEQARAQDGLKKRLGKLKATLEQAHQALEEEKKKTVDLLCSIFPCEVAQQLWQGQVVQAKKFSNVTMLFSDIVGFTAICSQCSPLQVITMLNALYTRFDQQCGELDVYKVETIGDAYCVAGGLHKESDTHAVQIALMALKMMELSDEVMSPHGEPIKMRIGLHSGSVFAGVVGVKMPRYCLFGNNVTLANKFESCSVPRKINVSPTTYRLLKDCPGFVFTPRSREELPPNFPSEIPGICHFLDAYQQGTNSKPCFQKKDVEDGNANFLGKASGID
# Protocol: (§1) Human soluble guanylate cyclase enzyme (hsGC) obtained from Enzo Inc. (P/N: ALX-201-177) was used to evaluate the activity of test compounds. The assay reactions contained 0.1 M Tris (pH 8.0), 0.5 mg/mL BSA (pH 8.0), 2 mM DTT, 2 mM MgCl2, 300 μM GTP, 1 mM 3-isobutyl-1-methylxanthine (IBMX) and 5 ng human soluble guanylate cyclase enzyme. Test compounds in DMSO were then added (2 μL, 10 or 30 μM final concentration) and incubated (water, 200 μL, 96-well plate format) at 37° C. for 30 minutes. The controls were carried out using 2 μL DMSO. After the 30 minute incubation, the reaction was stopped with the addition of 200 μL of cold methanol. The plate was then centrifuged at 3,200 rpm for 10 minutes at room temperature. Supernatants (200 μL) were collected and transferred to a new 96 well plate for analysis by HPLC LC/MS/MS.
# (§2) An 8 point cGMP (Sigma-Aldrich P/N: G6129) standard curve was prepared in assay buffer ranging from 0.156-20 μM. Samples for the cGMP standard curve were then diluted with an equal volume of methanol resulting in final cGMP concentrations of 0.078-10 μM.
# (§3) The cGMP standard curve was generated using GraphPad Prism Software.
# Calculations: Specific Activity was determined by the amount of cGMP formed (nmoles) per mg of sGC per min. Enzyme “fold-change” was calculated by dividing Specific Activity for test compounds by Specific Activity of DMSO controls.
# [2] = target: T1, Human soluble guanylate cyclase enzyme (hsGC); experiment: Purified human sGC enzyme synergy assay in the presence of sodium nitroprusside (SNP); assay type: biochemical; settings: 30 μM compound, 1 μM SNP; fold change of specific activity vs DMSO control
# Protocol: as §1, §2, §3
# Calculations: Specific Activity was determined by the amount of cGMP formed (nmoles) per mg of sGC per min. Enzyme “fold-change” was calculated by dividing Specific Activity for test compounds by Specific Activity of DMSO controls. […]
structure (smiles),measurement,setting,value
Nc1ccnc(-n2cc(-c3ncco3)c(Cc3ccccc3F)n2)n1 [Compound I-2],Enzyme Activity (increase at 30 μM without SNP),[1],C (C = 5 to <10 fold increase)
same,Enzyme Activity (increase at 30 μM with SNP),[2],D (D = 10 or <20 fold increase)
